Blank lines part the entries; values can stand above or below the compound they belong to.
How the values were obtained:
R6/2 mice = conditions: cited from earlier work
[1] = tested on: cultured spinal cord astrocytes; conditions: wild-type and mGlu2 knockout mice, not mGlu3 knockout; cited from earlier work
SMI-32+ motor neurons = conditions: abrogated by anti-GDNF antibodies; cited from earlier work
spinal cord GDNF levels = conditions: cited from earlier work
SOD1G93A mice = conditions: cited from earlier work
reserpine-treated rat = conditions: cited from earlier work
[2] = tested on: 6-OHDA lesioned nigrostriatal tract; conditions: cited from earlier work
[3] = tested on: GDNF mRNA and protein levels in the mouse brain; conditions: cited from earlier work
[4] = tested on: nigro-striatal damage induced by 1-methyl-4-phenyl-1,2,3,6-tetrahydropyridine in mice; conditions: acute or repeated 0.25 or 3 mg/kg i.p.; tyrosine hydroxylase-positive neuron count; cited from earlier work
cocaine-seeking in rats = conditions: systemic injections; cited from earlier work
cocaine craving = conditions: preliminary results in humans; cited from earlier work
Rat mGlu2 = biological target: T1, Rat mGlu2 (Rattus norvegicus, UniProt P31421); assay: mGlu receptor in vitro assay, thallium flux through GIRK channels, rat mGlu2; type: cell-based; conditions: PAM potency with EC20 glutamate
T1 construct: expressed in transfected cells; host or cells: HEK-293 co-expressing GIRK channels
T1 sequence (P31421 19-872): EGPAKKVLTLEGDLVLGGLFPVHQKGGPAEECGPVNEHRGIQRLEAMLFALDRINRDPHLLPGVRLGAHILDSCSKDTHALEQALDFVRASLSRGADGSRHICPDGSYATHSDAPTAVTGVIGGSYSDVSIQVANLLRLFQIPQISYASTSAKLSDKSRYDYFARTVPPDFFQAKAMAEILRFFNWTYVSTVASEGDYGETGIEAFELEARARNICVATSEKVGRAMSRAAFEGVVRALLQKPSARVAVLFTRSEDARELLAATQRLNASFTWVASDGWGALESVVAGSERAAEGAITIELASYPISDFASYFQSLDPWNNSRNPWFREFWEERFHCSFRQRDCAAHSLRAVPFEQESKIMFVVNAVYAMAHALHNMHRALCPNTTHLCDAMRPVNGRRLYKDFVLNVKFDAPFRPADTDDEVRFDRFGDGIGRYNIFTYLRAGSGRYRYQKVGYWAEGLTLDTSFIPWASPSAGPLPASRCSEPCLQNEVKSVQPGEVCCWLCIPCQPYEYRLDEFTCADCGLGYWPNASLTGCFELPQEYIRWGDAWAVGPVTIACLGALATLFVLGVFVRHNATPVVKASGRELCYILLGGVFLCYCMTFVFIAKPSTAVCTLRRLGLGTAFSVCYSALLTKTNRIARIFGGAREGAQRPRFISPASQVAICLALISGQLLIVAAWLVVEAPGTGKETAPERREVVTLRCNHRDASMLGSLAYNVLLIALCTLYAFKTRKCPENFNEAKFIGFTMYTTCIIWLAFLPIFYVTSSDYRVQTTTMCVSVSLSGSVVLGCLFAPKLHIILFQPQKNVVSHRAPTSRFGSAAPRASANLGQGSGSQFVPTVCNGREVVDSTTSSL
Method in brief: (§1)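 HEK-293 cells co-expressing rat mGlu2 or mGlu3 and GIRK, dye-loaded with FluoZin2-AM, compound added about 2.5 min before thallium buffer with EC20 glutamate; potency from the 5-15 s fluorescence slope, 10-point 4-parameter fit. Calcium assay at mGlu3 used TREx293 mGlu3 Gα15 cells induced with tetracycline 20 ng/mL for 20 h.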

Rat mGlu3 = biological target: T2, Rat mGlu3 (Rattus norvegicus, UniProt P31422); assay: mGlu receptor in vitro assay (thallium flux through GIRK channels / calcium assay), rat mGlu3; type: cell-based; conditions: PAM potency with EC20 glutamate
T2 construct: expressed in transfected cells; host or cells: HEK-293 co-expressing GIRK channels
T2 sequence (P31422 23-879): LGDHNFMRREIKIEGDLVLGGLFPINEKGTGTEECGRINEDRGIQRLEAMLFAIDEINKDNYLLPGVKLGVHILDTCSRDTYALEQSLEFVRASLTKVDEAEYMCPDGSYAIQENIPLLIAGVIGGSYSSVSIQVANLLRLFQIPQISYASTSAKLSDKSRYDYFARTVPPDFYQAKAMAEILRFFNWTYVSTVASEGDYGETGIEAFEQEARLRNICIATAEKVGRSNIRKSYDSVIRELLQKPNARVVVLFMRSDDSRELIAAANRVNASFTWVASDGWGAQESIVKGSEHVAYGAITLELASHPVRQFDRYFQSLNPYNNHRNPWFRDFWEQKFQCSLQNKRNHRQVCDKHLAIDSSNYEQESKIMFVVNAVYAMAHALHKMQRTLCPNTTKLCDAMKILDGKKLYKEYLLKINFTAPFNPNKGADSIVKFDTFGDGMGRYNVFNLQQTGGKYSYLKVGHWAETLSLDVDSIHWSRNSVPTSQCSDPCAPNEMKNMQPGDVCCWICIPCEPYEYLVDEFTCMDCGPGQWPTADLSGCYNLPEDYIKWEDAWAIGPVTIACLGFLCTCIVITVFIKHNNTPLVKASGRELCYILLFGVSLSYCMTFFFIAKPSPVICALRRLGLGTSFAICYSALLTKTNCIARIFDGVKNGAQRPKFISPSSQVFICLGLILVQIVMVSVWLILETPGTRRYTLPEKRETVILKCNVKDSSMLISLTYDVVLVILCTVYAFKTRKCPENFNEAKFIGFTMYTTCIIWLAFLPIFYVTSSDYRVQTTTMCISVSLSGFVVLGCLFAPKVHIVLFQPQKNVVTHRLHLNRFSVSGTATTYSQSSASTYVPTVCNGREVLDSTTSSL
Method in brief: as §1

Human mGlu2 = Human mGlu2 (Homo sapiens, UniProt Q14416); assay: mGlu receptor in vitro assay, human mGlu2; type: cell-based
Sequence of Human mGlu2 (Q14416 19-872): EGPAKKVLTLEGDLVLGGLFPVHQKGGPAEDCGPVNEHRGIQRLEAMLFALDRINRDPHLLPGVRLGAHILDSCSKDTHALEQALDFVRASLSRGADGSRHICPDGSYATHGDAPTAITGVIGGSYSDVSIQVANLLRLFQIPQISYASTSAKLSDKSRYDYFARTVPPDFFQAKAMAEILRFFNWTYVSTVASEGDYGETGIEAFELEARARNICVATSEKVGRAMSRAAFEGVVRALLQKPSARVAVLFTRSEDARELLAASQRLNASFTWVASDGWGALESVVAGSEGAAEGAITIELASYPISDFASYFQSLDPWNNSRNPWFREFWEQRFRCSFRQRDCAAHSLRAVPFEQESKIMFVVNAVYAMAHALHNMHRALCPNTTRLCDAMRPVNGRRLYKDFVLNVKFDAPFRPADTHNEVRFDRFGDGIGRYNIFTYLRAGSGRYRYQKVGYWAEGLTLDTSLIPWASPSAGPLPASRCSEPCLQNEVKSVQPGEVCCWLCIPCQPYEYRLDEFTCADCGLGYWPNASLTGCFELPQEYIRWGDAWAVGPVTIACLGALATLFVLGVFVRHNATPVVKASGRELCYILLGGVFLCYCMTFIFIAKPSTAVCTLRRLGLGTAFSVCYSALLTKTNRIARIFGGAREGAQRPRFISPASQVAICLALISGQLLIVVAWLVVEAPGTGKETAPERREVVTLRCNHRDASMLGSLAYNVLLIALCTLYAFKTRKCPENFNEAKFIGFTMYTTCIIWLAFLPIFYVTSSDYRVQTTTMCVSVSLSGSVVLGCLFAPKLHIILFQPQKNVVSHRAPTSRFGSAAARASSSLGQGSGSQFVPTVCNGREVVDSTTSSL

Human mGlu3 = Human mGlu3 (Homo sapiens, UniProt Q14832); assay: mGlu receptor in vitro assay, human mGlu3; type: cell-based
Sequence of Human mGlu3 (Q14832 23-879): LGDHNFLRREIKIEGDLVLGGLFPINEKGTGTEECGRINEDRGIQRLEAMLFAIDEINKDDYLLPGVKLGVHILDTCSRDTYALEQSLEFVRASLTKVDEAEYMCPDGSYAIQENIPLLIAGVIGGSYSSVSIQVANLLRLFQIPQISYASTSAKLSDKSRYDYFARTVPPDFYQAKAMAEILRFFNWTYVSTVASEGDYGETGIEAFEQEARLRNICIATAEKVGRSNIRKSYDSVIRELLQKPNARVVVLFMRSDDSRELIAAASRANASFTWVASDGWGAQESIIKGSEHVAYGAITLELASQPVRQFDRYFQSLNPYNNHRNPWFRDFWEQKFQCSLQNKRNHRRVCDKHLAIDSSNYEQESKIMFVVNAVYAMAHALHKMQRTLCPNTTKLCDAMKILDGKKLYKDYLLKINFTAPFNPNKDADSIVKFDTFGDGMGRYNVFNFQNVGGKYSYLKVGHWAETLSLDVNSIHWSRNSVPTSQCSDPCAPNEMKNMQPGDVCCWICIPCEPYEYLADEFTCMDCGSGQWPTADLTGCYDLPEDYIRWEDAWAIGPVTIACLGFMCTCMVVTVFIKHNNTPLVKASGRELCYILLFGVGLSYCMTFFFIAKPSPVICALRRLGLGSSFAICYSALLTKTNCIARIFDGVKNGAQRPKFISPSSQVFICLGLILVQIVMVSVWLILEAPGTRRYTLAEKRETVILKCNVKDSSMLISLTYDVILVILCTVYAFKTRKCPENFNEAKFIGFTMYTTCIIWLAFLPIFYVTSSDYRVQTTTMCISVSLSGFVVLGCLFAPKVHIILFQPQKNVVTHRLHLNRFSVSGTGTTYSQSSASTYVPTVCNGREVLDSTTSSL

EC50 (Rat mGlu2): 106 nM
EC50 (Rat mGlu3): 660 nM
EC50 (Human mGlu2): 133 nM
EC50 (Human mGlu3): 748 nM
Compound: CCCC(=O)c1ccc(OCc2nc(-c3cccc(C(=O)O)c3)no2)c(C)c1O [compound 135, 3-(5-((4-Butyryl-3-hydroxy-2-methylphenoxy)methyl)-1,2,4-oxadiazol-3-yl)benzoic acid]

EC50 (Rat mGlu2): 92 nM
EC50 (Rat mGlu3): 855 nM
EC50 (Human mGlu2): 203 nM
EC50 (Human mGlu3): 1480 nM
Compound: Cc1c(C(=O)O)cccc1-c1cccc(COc2ccc(C(=O)CC(C)(C)C)c(O)c2C)c1 [compound 160, 3′-((4-(3,3-Dimethylbutanoyl)-3-hydroxy-2-methylphenoxy)methyl)-2-methyl-[1,1′-biphenyl]-3-carboxylic acid]

Second part, the compound before the results:

Compound: N[C@@]1(C(=O)O)CO[C@H]2[C@H](C(=O)O)[C@H]21 [LY379268]
striatal neuron loss (R6/2 mice; 20 mg/kg daily s.c., at 10 weeks): rescue of a 15-20% striatal neuron loss
motor function (R6/2 mice; 20 mg/kg daily s.c., distance traveled, speed, pauses, straight-line locomotion): normalization of motor function
phenotype in R6/2 mice (R6/2 mice; 20 mg/kg daily subcutaneous, beginning at 4 weeks): dramatically improves the phenotype
GDNF levels in astrocytes [1]: enhanced GDNF levels
protection of motor neurons against excitotoxic death (SMI-32+ motor neurons): protected
tolerance to GDNF-enhancing effect (spinal cord GDNF levels; 28 days s.c. osmotic minipumps, 0.5-5 mg/day): No tolerance developed
spinal cord GDNF levels (spinal cord GDNF levels; acute 0.5, 1 or 5 mg/kg i.p., wild-type and mGlu2 knockout mice, not mGlu3 knockout): enhanced spinal cord GDNF levels
expression of glutamate transporter GLT-1 in spinal cord (spinal cord GDNF levels; continuous infusion): enhanced the expression
neurological disability (SOD1G93A mice; continuous treatment 1 or 5 mg/kg/day): beneficial effect on neurological disability
spinal cord motor neurons (SMI-32+ cell count) (SOD1G93A mice; day 40 of treatment): rescued spinal cordmotor neurons
locomotor activity (reserpine-treated rat; intracerebroventricular 1, 5, 10, 20 nmol, reserpine 5 mg/kg ip): dose-dependent increase in locomotor activity
reserpine-induced akinesia (reserpine-treated rat; systemic 0.1, 1, 10 mg/kg ip): did not reverse reserpine-induced akinesia
protection against nigral infusion of 6-OHDA ([2]; 10 mg/kg/day ip, 7 days): some protection
protection against striatal infusion of 6-OHDA ([2]; 10 mg/kg/day ip, 21 days, striatum): significant protection in the striatum
rotational behaviour ([2]; systemic 0.1, 1, 10 mg/kg ip, 1 month after unilateral 6-OHDA lesion): failed to effect rotational behaviour
GDNF mRNA and protein levels ([3]; 0.25-3 mg/kg i.p.): increased
time of peak GDNF mRNA levels ([3]; after injection): 3 h
protection against nigro-striatal damage [4]: highly protective

Compound: CC(=O)N[C@@H](CS)C(=O)O [N-acetylcysteine]
reinstatement of cocaine-seeking (cocaine-seeking in rats): attenuated
cocaine craving (cocaine craving): attenuated cocaine craving

Compound: Cc1c(OCc2cccc(-c3cccc(C(=O)NC#N)c3)c2)ccc(C(=O)CC(C)(C)C)c1O [compound 162, N-Cyano-3′-((4-(3,3-dimethylbutanoyl)-3-hydroxy-2-methylphenoxy)methyl)-[1,1′-biphenyl]-3-carboxamide]
EC50 (Rat mGlu2): 166 nM
EC50 (Rat mGlu3): 145 nM
EC50 (Human mGlu2): 234 nM
EC50 (Human mGlu3): 593 nM

From patent US20250179000A1 (Sanford Burnham Prebys Medical Discovery Institute, priority 2021, published 2025)
